The series concerns the target ABCB1 (P-glycoprotein) (Homo sapiens, UniProt P08183). The experiment in a line: TP_TRANSPORTER: efflux in Doxorubicin resistant K562 cells.

Drawing on ChEMBL document CHEMBL2074063, “P-glycoprotein-mediated efflux of hydroxyrubicin, a neutral anthracycline derivative, in resistant K562 cells” (FEBS Lett, 1994), this text covers Km for one molecule.

As a reminder, the Km is the concentration of substrate that gives half-maximal velocity.

Sequence of ABCB1 (P-glycoprotein) (P08183 whole entry): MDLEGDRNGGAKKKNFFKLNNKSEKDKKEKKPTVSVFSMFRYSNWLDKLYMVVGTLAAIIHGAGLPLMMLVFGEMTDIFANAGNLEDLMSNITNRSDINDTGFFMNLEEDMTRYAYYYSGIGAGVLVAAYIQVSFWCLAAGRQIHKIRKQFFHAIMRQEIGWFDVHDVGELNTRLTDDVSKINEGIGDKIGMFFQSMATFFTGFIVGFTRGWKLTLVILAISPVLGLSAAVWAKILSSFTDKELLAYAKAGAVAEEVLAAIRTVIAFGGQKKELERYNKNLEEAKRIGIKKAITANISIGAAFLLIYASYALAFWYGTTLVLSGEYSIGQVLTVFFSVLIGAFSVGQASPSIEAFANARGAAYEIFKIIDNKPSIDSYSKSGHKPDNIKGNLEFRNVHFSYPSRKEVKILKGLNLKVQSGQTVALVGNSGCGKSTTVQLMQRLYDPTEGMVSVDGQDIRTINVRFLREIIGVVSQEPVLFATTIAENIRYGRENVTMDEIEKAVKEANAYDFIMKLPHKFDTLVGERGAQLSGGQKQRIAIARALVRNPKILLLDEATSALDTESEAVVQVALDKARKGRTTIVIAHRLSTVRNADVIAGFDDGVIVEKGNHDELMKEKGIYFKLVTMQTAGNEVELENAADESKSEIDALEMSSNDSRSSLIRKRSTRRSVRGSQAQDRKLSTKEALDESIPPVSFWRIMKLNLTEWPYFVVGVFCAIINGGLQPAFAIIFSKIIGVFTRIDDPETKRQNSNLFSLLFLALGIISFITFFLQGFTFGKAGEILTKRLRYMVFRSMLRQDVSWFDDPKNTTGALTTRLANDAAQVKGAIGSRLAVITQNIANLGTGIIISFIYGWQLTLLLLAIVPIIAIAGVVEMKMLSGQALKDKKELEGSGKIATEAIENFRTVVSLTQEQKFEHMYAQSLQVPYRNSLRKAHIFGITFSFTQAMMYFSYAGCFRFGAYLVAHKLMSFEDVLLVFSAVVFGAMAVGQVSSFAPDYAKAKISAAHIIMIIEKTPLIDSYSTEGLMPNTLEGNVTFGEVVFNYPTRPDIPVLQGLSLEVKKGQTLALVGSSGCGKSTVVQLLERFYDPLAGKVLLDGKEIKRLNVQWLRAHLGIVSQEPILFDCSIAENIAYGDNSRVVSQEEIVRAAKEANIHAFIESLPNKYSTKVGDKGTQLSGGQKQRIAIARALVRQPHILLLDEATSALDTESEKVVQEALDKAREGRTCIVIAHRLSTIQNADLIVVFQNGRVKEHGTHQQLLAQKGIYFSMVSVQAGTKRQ

On to `COc1cccc2c1C(=O)c1c(O)c3c(c(O)c1C2=O)C[C@@](O)(C(=O)CO)C[C@@H]3O[C@H]1C[C@H](O)[C@H](O)[C@H](C)O1` [HYDROXYRUBICIN], for which the Michaelis-Menten constant (Km) was determined as 2 µM.
